Measured values reported in patent US10226471B2, “Modified-release dosage forms of 5-HT2C agonists useful for weight management” (Arena Pharmaceuticals, Inc., priority 2010, dated 2019).

Tests used:
[1] = Phase 3 clinical trials of lorcaserin for weight management
[2] = Clinical trial of a single oral dose under fed and fasted conditions; assay type: in vivo, human; conditions: single oral dose 10 mg
Description: A clinical trial was performed to evaluate the safety and pharmacokinetic profile of a single oral dose of Compound 1 (10 mg) administered to healthy male and female subjects aged 18 to 60 years (inclusive) under fed and fasted conditions. […] Cmax was reduced by approximately 10% in the fed compared to fasted state, but a lack of food effect was not proven. […] Compound 1 was generally well tolerated when dosed in the fasted state and after a high-fat breakfast. There were a higher number of adverse events when dosed in the fasted state, (18 compared to 6) including two moderate intensity (nausea and headache) and one severe (vomiting) intensity events occurring in a single subject.

[3] = subcutaneous Alzet pump, 1 mg/kg/h for four days; mean
[4] = Pharmacokinetics parameters from an open-label, single-dose, cross-over clinical study (GastroPlus input); assay type: in vivo; conditions: human, oral, 10 mg, clinical study in the fed and fasted state
Description: The GastroPlus™ software (Simulations Plus, Inc., Lancaster, Calif.) was used to simulate the pharmacokinetics of Compound 1 from immediate-release and modified-release tablets. The release profile follows first order release kinetics and T80% is approximately 8 hours. The lower limit was not defined. Pharmacokinetics parameters of Compound 1 were obtained from an open-label, single-dose, cross-over clinical study in the fed and fasted state. Input variables and default values for GastroPlus™ simulation were as follows

[5] = continuous subcutaneous infusion 0.630 mg/kg/h, Day 28, mean
Description: (§3) On Day 28, animals were placed in Culex® cages for automated blood collection. […] Analyte plasma concentrations were determined by LC/MS/MS. Noncompartmental PK analysis was performed using WinNonlin® (Pharsight®, Mountain View, Calif.) to determine t1/2, Cmaxss, Css and AUClast.

[6] = Adverse events in BLOOM and BLOSSOM (Table A); assay type: in vivo, human; conditions: 10 mg BID, N = 3195
Description: (§1) The safety of Compound 1 has been evaluated in three randomized, double-blind, placebo-controlled trials, one of 2 years duration (“BLOOM” trial) and two of 1 year duration (“BLOSSOM” and “BLOOM-DM” trials). A total of 3451 patients were exposed to Compound 1 10 mg twice daily for up to 1 year; 571 patients were exposed for up to 2 years; and an additional 896 patients were exposed to Compound 1 10 mg once daily for up to 1 year. The BLOOM-DM study included only patients with type 2 diabetes mellitus; BLOOM and BLOSSOM excluded patients with diabetes.
(§2) The most common adverse reactions for non-diabetic patients treated with Compound 1 compared to placebo were headache, upper respiratory tract infection, nasopharyngitis, dizziness, and nausea. The most common adverse reactions for diabetic patients were hypoglycemia, headache, back pain, nasopharyngitis, and nausea. Adverse events that were reported by ≥5% of patients and were more frequently reported by patients taking Compound 1 compared to placebo are summarized in Table A (BLOOM and BLOSSOM) and Table B (BLOOM DM).

[7] = not told
in vivo [8] = conditions: male, SD, rat, plasma
Description: as §3

in vivo [9] = conditions: male, Sprague-Dawley, rat, plasma, po, 24 mg/kg/day
[10] = Safety in three randomized, double-blind, placebo-controlled trials (BLOOM, BLOSSOM, BLOOM-DM): discontinuation due to adverse reactions; assay type: in vivo, human
Description: as §1
The discontinuation rate due to adverse reaction was 7.1% for non-diabetic patients and 8.6% for patients with type 2 diabetes receiving Compound 1. The most common adverse reactions leading to discontinuation more often among Compound 1 treated patients than placebo were headache (1.3% vs. 0.8%), depression (0.9% vs. 0.5%) and dizziness (0.7% vs. 0.2%).

clinical = conditions: human, brain (lumbar cerebrospinal fluid measured) and plasma, oral, 10 mg
[11] = Adverse events in BLOOM-DM, patients with type 2 diabetes (Table B); assay type: in vivo, human; conditions: 10 mg BID
Description: as §1, §2

[12] = phase 3 trial, after 12 months, ITT-LOCF

Compound: C[C@H]1CNCCc2ccc(Cl)cc21 [Compound 1]
- excess body weight lost ([1]; first phase 3 trial, based on a normal BMI of 25): about one-third
- average weight loss [1, 12]: 12.7 pounds
- average weight loss, of body weight [1, 12]: 5.8%
- average weight lost, of their weight ([1]; pivotal phase 3 clinical trial program): about 8%
- patients achieved at least 10% weight loss ([1]; pivotal phase 3 clinical trial program, treated for up to two years): over one-third
- average weight loss, top quartile of patients ([1]; second phase 3 trial): 35 pounds
- average weight loss, top quartile of patients, of body weight ([1]; second phase 3 trial): 16%
- development of FDA-defined valvulopathy (echocardiograms) ([1]; two-year treatment period): no apparent drug-related effect
- logP (physchem): 2.56
- pKa (physchem): 9.53
- number of adverse events ([2]; after a high-fat breakfast): 6
- number of adverse events ([2]; fasted state): 18
- food effect on overall exposure ([2]; fed vs fasted): no food effect on overall exposure
- reduction of Cmax in the fed compared to fasted state ([2]; high-fat breakfast): approximately 10%
- time of maximum plasma concentrations, fed compared to fasted ([2]; high-fat breakfast): statistically significant delay
- Cl [3]: 49.3 ± 4.83 mL/min/kg
- Css from 42 to 90 hours [3]: 340 ng/mL
- t1/2 (Day 6, oral gavage 24 mg/kg/day for 6 days, not fasted, composite profiles, 24 mg/kg/day): 4.02 h
- Css = AUC24 hr ÷ dosing interval (24 h) (calculated for the infusion rate of the chronic study): 213 ng/mL
- blood plasma ratio ([4]; blood and plasma, read-out: Blood to plasma concentration ratio): 1.3
- clearance ([4]; plasma): 326 mL/min
- Vd ([4]; plasma, read-out: Apparent volume of distribution): 307 L
- Css, 0 to 21 h [5]: 155 ng/mL
- Back pain, number of patients [6]: 201
- Back pain, patients (%) [6]: (6.3) %
- Constipation, number of patients [6]: 186
- Constipation, patients (%) [6]: (5.8) %
- Diarrhea, number of patients [6]: 207
- Diarrhea, patients (%) [6]: (6.5) %
- Dizziness, number of patients [6]: 270
- Dizziness, patients (%) [6]: (8.5) %
- Dry mouth, number of patients [6]: 169
- Dry mouth, patients (%) [6]: (5.3) %
- Fatigue, number of patients [6]: 229
- Fatigue, patients (%) [6]: (7.2) %
- Headache, number of patients [6]: 537
- Headache, patients (%) [6]: (16.8) %
- Nasopharyngitis, number of patients [6]: 414
- Nasopharyngitis, patients (%) [6]: (13.0) %
- Nausea, number of patients [6]: 264
- Nausea, patients (%) [6]: (8.3) %
- Upper respiratory tract infection, number of patients [6]: 439
- Upper respiratory tract infection, patients (%) [6]: (13.7) %
- Urinary tract infection, number of patients [6]: 207
- Urinary tract infection, patients (%) [6]: (6.5) %
- Papp [7]: 3.54 ×10⁻⁶ cm/s
- AUC(0-t) (in vivo [8]; po, 24 mg/kg/day): 4170 ng·h/mL
- Cmax (in vivo [8]; po, 24 mg/kg/day): 553 ng/mL
- AUC(0-t) (in vivo [8]; sc, 0.63 mg/kg/h): 3630 ng·h/mL
- Cmax (in vivo [8]; sc, 0.63 mg/kg/h): 213 ng/mL
- AUC(0-inf) (in vivo [9]): 5210 ng·h/mL
- AUC(0-t) (in vivo [9]): 5210 ng·h/mL
- Cmax (in vivo [9]): 700 ng/mL
- Tmax (in vivo [9]): 0.5 h
- half-life (in vivo [9]; t1/2, Day 6, oral gavage 24 mg/kg/day for 6 days, not fasted, composite profiles): 4 h
- depression leading to discontinuation ([10]; Compound 1 treated patients): 0.9%
- dizziness leading to discontinuation ([10]; Compound 1 treated patients): 0.7%
- headache leading to discontinuation ([10]; Compound 1 treated patients): 1.3%
- discontinuation rate due to adverse reaction ([10]; non-diabetic patients): 7.1%
- discontinuation rate due to adverse reaction ([10]; patients with type 2 diabetes): 8.6%
- Kp (clinical): < 1
- Back pain, patients (%) [11]: (11.7) %
- Cough, patients (%) [11]: (8.2) %
- Dizziness, patients (%) [11]: (7.0) %
- Fatigue, patients (%) [11]: (7.4) %
- Gastroenteritis viral, patients (%) [11]: (7.0) %
- Headache, patients (%) [11]: (14.5) %
- Back pain, number of patients ([11]; N = 3195): 30
- Cough, number of patients ([11]; N = 3195): 21
- Dizziness, number of patients ([11]; N = 3195): 18
- Fatigue, number of patients ([11]; N = 3195): 19
- Gastroenteritis viral, number of patients ([11]; N = 3195): 18
- Headache, number of patients ([11]; N = 3195): 37
- Hypertension, number of patients ([11]; N = 3195): 13
- Hypertension, patients (%) ([11]; N = 3195): (5.1) %
- Hypoglycemia (including asymptomatic), number of patients ([11]; N = 3195): 75
- Hypoglycemia (including asymptomatic), patients (%) ([11]; N = 3195): (29.3) %
- Hypoglycemia, symptomatic, number of patients ([11]; N = 3195): 19
- Hypoglycemia, symptomatic, patients (%) ([11]; N = 3195): (7.4) %
- Influenza, number of patients ([11]; N = 3195): 15
- Influenza, patients (%) ([11]; N = 3195): (5.9) %
- Nasopharyngitis, number of patients ([11]; N = 3195): 29
- Nasopharyngitis, patients (%) ([11]; N = 3195): (11.3) %
- Nausea, number of patients ([11]; N = 3195): 24
- Nausea, patients (%) ([11]; N = 3195): (9.4) %
- Procedural pain, number of patients ([11]; N = 3195): 13
- Procedural pain, patients (%) ([11]; N = 3195): (5.1) %
- Urinary tract infection, number of patients ([11]; N = 3195): 23
- Urinary tract infection, patients (%) ([11]; N = 3195): (9.0) %
